Assay results published in US20030161866A1, “Novel pharmaceutical formulation to limit or delay surface absorption” (priority 2000, published 2003).
In brackets after ≈: the same amount, converted by molar mass. Read-outs that look alike come from different tables or passages of the source.

What was measured:
[1] = within two hours of administration; cited from earlier work
[2] = Visual (turbidity) solubility of DEET in IPA and water; type: physicochemical; details: aqueous with cosolvent or surfactant or cyclodextrin, thermodynamic from solid, read-out: limit of DEET solubility
Experimental: Homogenous solutions of different concentrations of DEET with varying percentages of IPA in water were prepared and subsequently incorporated into the clay. Solutions of 30%, 40%, and 50% IPA in water were prepared. DEET was completely miscible with IPA, which was also completely miscible with water. The addition of DEET to the solvent mixture was therefore expected to produce a single homogenous phase within the limits of its solubility. Solutions were prepared consisting of the solvent systems and varying concentrations of DEET, from 12.5-200 mg/ml. DEET was added to the solvent in increments of 50 mg until the solution appeared turbid after vortexing for 5 seconds. Turbidity was used as a marker for saturation.
Once various solvents were mixed with DEET, turbidity of the samples was used as a marker for saturation. All DEET spiking solutions were below saturation point.

[3] = 24 hours after administration of the last dose; cited from earlier work
[4] = Evaporation (weight loss) of DEET/IPA/clay samples under nitrogen; type: physicochemical; details: no added IPA, over 12 hours under nitrogen, relative to amount of DEET
Experimental: The samples prepared above were held at room temperature in the hood under nitrogen over a 12 hour period. Evaporation rates were measured every hour.
Samples of the HDTMA clay/DEET/IPA matrix were mixed as illustrated in Example 1. Volatile components of the matrix were evaporated using a constant flow of nitrogen over 12 hours in fume hood. Control samples of DEET with IPA only and DEET alone were subjected to the same conditions as the DEET with HDTMA treated clay.
Weight loss of the samples over 12 hours was used as a measure of the extent of evaporation. Samples were weighed at the beginning of the experiment (time 0) and at hourly intervals thereafter. Reported values are the difference between the original weight of formulation and the weight at sampling time, expressed as a percentage of the amount of IPA added to each. For the controls without IPA, percent weight loss was calculated relative to the amount of DEET in the original sample.

CCN(CC)C(=O)c1cccc(C)c1 [DEET, N,N-diethyl-m-toluamide]
dose administered topically that is absorbed [1]: Approximately 17%
solubility at 5 seconds ([2]; 30% IPA in water, 30% IPA in water): 115 mg/mL (≈ 601 mM)
solubility at 5 seconds ([2]; 40% IPA in water, 40% IPA in water): 200 mg/mL (≈ 1050 mM)
solubility at 5 seconds ([2]; 50% IPA in water, 50% IPA in water): 200 mg/mL (≈ 1050 mM)
absorbed dose recovered in the urine [3]: ~90%
weight loss [4]: 4%
